Consider seven compounds from patent US12473534B2, “Composition for culturing peripheral blood monocyte-derived regulatory t cell and regulatory T cell culturing method using same” (Immunisbio Co., Ltd., priority 2019, dated 2025).

Assay [1] concerns regulatory T cells derived from peripheral blood mononuclear cells. Put plainly: Culturing of regulatory T cells from peripheral blood mononuclear cells with myricetin or superoxide dismutase, FACS analysis. Format: cell-based, human. The note with it: for CD4+, CD25+, CD127− (%): flow cytometry; for Total number of cells: start 2.0×10^7 cells, control 20.8. The procedure:
30 mL to 60 mL of human peripheral blood was collected using a 10 mL heparinized vacuum blood collection tube (BD Vacutainer TM). Then, 15 mL of a solution of Ficoll-Paque Plus (endotoxin tested, density 1.077 g/mL, GE Healthcare, USA) was put into a 50 mL lymphocyte separation tube (Leucosep, Greiner Bio-One, Swiss), and the solution was allowed to precipitate down to a glass membrane in the tube by centrifugation at 2000 rpm. The collected blood was transferred to a separation tube and centrifuged at 2500 rpm to separate the erythrocytes and granulocyte layer at the bottom, and the mononuclear cell layer and platelets at the top, thereby separating the blood components. After centrifugation, the plasma in the separated upper layer was inactivated in a water bath at 56° C. for 30 minutes. After centrifugation, the separated lymphocyte layer was collected using a sterilized pipette and collected in a 15 mL tube. After the 15 mL tube with the collected lymphocytes were centrifuged, the supernatant was removed. Cells were washed by adding 10 mL of a buffer solution (PBS) to the lymphocytes from which the supernatant had been removed and suspending the cells. The number of cells was measured from some of the suspension using a hemocytometer, and only lymphocytes were collected by centrifuging again. In this case, the number of harvested lymphocytes was measured to be 20×10^6 cells in total, and the harvested lymphocytes were cultured according to Example 1 below. After the lymphocytes prepared in Experimental Example 1 were taken, the lymphocytes were cultured in a T-flask (SPL Life Sciences) containing a culture solution and 0.2 to 2 mL of plasma in a 5% CO2 incubator at 37° C. for 4 to 14 days. Furthermore, in order to induce a reaction with an activation receptor present on the cell surface of regulatory T cells, 0.001 to 0.03 of one or more antibodies selected from the group consisting of anti-CD2, anti-CD3, anti-CD7, anti-CD8, anti-CD28, anti-CD30L, anti-CD40, anti-CD70, anti-CD80, anti-CD83 and anti-CD86; one or more cytokines selected from the group consisting of interleukin-2, interleukin-4, interleukin-7, interleukin-12, interleukin-15, interleukin-34 and TGF-β; 0 to 250 μM of myricetin; and 0 to 50 μM of superoxide dismutase were administered. That is, lymphocytes measured to be a total number of 2.0×10^7 cells were added to 5 to 100 mL of KBM502 medium including the above-described plasma, antibodies, cytokines, myricetin and superoxide dismutase, and cultured in a CO2 incubator for 4 to 14 days. To confirm the differentiation of regulatory T cells, staining was performed with an anti-human antibody or mouse isotype antibody (BD-Pharmingen San Jose, USA) under a condition of CD4+, CD25+ and CD127−, which are surface proteins of regulatory T cells, measured by flow cytometry, and then analyzed using BD Accuri C6 Plus.

Assay [2] deals with regulatory T cells derived from peripheral blood mononuclear cells after removal of CD8+ cells. Kind of assay: Culturing of regulatory T cells with myricetin and superoxide dismutase only or in combination after removal of CD8, FACS analysis. Type of assay: cell-based, human. The note with it: for Total number of cells: control 18.2. The procedure: After the lymphocytes prepared in Experimental Example 1 were taken, the lymphocytes were cultured in a T-flask (SPL Life Sciences) containing a culture solution and 0.2 to 2 mL of plasma in a 5% CO2 incubator at 37° C. for 4 to 14 days. Furthermore, in order to induce a reaction with an activation receptor present on the cell surface of regulatory T cells, 0.001 to 0.03 of one or more antibodies selected from the group consisting of anti-CD2, anti-CD3, anti-CD7, anti-CD8, anti-CD28, anti-CD30L, anti-CD40, anti-CD70, anti-CD80, anti-CD83 and anti-CD86; one or more cytokines selected from the group consisting of interleukin-2, interleukin-4, interleukin-7, interleukin-12, interleukin-15, interleukin-34 and TGF-β; 0 to 250 μM of myricetin; and 0 to 50 μM of superoxide dismutase were administered. That is, lymphocytes measured to be a total number of 2.0×10^7 cells were added to 5 to 100 mL of KBM502 medium including the above-described plasma, antibodies, cytokines, myricetin and superoxide dismutase, and cultured in a CO2 incubator for 4 to 14 days. After peripheral blood mononuclear cells were separated, the cells were suspended in MACS buffer from Miltenyi Biotec and reacted with Human CD8 MicroBeads, and then CD8+ cells were removed using an LD column in a QuadroMACS Separator. Then, the cells were cultured using the same culturing method as in Example 1, and treated with myricetin and superoxide dismutase by selecting the treatment concentration having the highest regulatory T cell distribution in Example 1. To confirm the differentiation of regulatory T cells, staining was performed with an anti-human antibody or mouse isotype antibody (BD-Pharmingen San Jose, USA) under a condition of CD4+, CD25+ and CD127−, which are surface proteins of regulatory T cells, measured by flow cytometry, and then analyzed using BD Accuri C6 Plus.

Where [3] appears, read: Day 0, after removal of CD8, flow cytometry.
Setting [4] is: Day 7 of culture, after removal of CD8.
The mark [5] stands for this setting: Day 7 of culture, after removal of CD8, control 92.3.

For the compound `O=c1c(O)c(-c2cc(O)c(O)c(O)c2)oc2cc(O)cc(O)c12` [M1, myricetin], the “CD4+, CD25+, CD127− (%)” value is on record as 2.1% in assay [1] (Day 0, before culture) and 22.4% in assay [1] (Day 7 of culture, control 18.0). In addition, the “Total number of cells” value in assay [1] (Day 7 of culture) was 26.8 ×10^7 cells.
For `O=c1c(O)c(-c2cc(O)c(O)c(O)c2)oc2cc(O)cc(O)c12` [M2, myricetin] the same measures were 2.1%, 22.9% and 26.7 ×10^7 cells.
With `O=c1c(O)c(-c2cc(O)c(O)c(O)c2)oc2cc(O)cc(O)c12` [M3, myricetin], the “CD4+, CD25+, CD127− (%)” value in assay [2] (setting [3]) was determined as 0.4%; in assay [2] (setting [5]), 97.6%; in assay [1] (Day 0, before culture), 2.1%; in assay [1] (Day 7 of culture, control 18.0), 24.7%. Besides, the “Total number of cells” value in assay [2] (setting [4]) was 20.8 ×10^7 cells; in assay [1] (Day 7 of culture), 28.6 ×10^7 cells.
In the case of `O=c1c(O)c(-c2cc(O)c(O)c(O)c2)oc2cc(O)cc(O)c12` [M4, myricetin], the “CD4+, CD25+, CD127− (%)” value in assay [1] (Day 0, before culture) was 2.1%; in assay [1] (Day 7 of culture, control 18.0), 23.3%. Besides, in assay [1] (Day 7 of culture), the “Total number of cells” value was 25.6 ×10^7 cells.
superoxide dismutase [S1]: the “CD4+, CD25+, CD127− (%)” value is 0.7% in assay [2] (setting [3]); 97.6% in assay [2] (setting [5]); 1.2% in assay [1] (Day 0, before culture); 37.4% in assay [1] (Day 7 of culture, control 18.0). Also, the entries for the “Total number of cells” value in assay [2] (setting [4]) and in assay [1] (Day 7 of culture) were 21.5 ×10^7 cells and 22.5 ×10^7 cells, respectively.
For superoxide dismutase [S2], the “CD4+, CD25+, CD127− (%)” value in assay [1] (Day 0, before culture) is 1.2%; in assay [1] (Day 7 of culture, control 18.0) it was 37.1%. Besides, the “Total number of cells” value in assay [1] (Day 7 of culture) was 25.2 ×10^7 cells.
For superoxide dismutase [S3] the same measures were 1.2%, 36.0% and 24.4 ×10^7 cells.
